# Source: patent US11850247B2, “Antiviral compounds” (REGENTS OF THE UNIVERSITY OF MINNESOTA, priority 2020, dated 2023)
# Key:
# [1] = Microsomal stability assay, human liver microsomes; assay type: in vitro ADME; conditions: for half-life at 1 μM / HLM half-life (t1/2): 1 μM compound, NADPH
# Procedure: (§1) The in vitro microsomal stability assay was conducted in duplicate in mouse and human liver microsomal systems, which were supplemented with nicotinamide adenine dinucleotide phosphate (NADPH) as a cofactor. […] The reaction was initiated by addition of 1 mM NADPH, followed by incubation at 37° C. A negative control was performed in parallel in the absence of NADPH to measure any chemical instability or non-NADPH dependent enzymatic degradation for each compound. At various time points (0, 5, 15, 30, and 60 minutes), 1 volume of reaction aliquot was taken and quenched with 3 volumes of acetonitrile containing an appropriate internal standard and 0.1% formic acid. The samples were then vortexed and centrifuged at 15,000 rpm for 5 minutes at 4° C. The supernatants were collected and analyzed by LC-MS/MS to determine the in vitro metabolic half-life (t1/2).
# [2] = Microsomal stability assay, mouse liver microsomes; assay type: in vitro ADME; conditions: NADPH
# Procedure: as §1
# HIV-1 = assay: Anti-HIV-1 activity in TZM-GFP cells (viral LTR-activated GFP expression); assay type: cell-based; conditions: Human immunodeficiency virus 1, HIV-1 strain MOI=1, GFP positive cells counted after 48 hours
# Procedure: The potency of HIV-1 inhibition by a compound was based on its inhibitory effect on viral LTR-activated GFP expression compared with that of compound-free (DMSO) controls. Briefly, TZM-GFP cells were plated at density of 1×10^4 cells per well in a 96-well plate. 24 hours later, media was replaced with increasing concentrations of compound. 24 hours post treatment, cells were exposed to an HIV-1 strain (MOI=1).
# (§2) The cytotoxicity of each compound was also determined in TZM-GFP cells. Cells were plated at a density of 1×10^4 cells per well in a 96-well plate and were continuously exposed to increasing concentrations of a compound for 72 hours. The number of viable cells in each well was determined using a Cell Proliferation Kit II (XTT), and 50% cytotoxicity concentration (CC50) values were determined. All the cell-based assays were conducted in duplicate and in at least two independent experiments. For the EC50 and CC50 dose responses, values were plotted in GraphPad Prism 5 and analyzed with the log (inhibitor) vs. normalized response-variable slope equation. Final values were calculated in each independent assay and the average values were determined. Statistical analysis (calculation of standard deviation) was performed by using Microsoft Excel.
# TZM-GFP cells = assay: Cytotoxicity in TZM-GFP cells (XTT); assay type: cell-based; conditions: 50 μM compound
# Procedure: as §2
# [3] = target: covalently-crosslinked hexameric CA A14C/E45C/W184A/M185A (CA121) (Human immunodeficiency virus type 1 group M subtype B, UniProt P12493, A146C/E177C/M317A/W316A); assay: Thermal shift assay (TSA), CA hexamer stability; assay type: binding, HIV-1; conditions: compound 20 μM, ΔTm=Tm−T0 vs DMSO
# [4] = Cytotoxicity in TZM-GFP cells (XTT); assay type: cell-based; conditions: human, 72 hours exposure, XTT
# Procedure: as §2
# [5] = pH 7.4, with Cobicistat 0.5 μM (CYP3A inhibitor), human liver microsomes, with 0.5 μM Cobicistat (CYP3A inhibitor), read-out: HLM (+Cobi) half-life (t1/2)
# [6] = pH 7.4, human liver microsomes, without Cobicistat, read-out: HLM half-life (t1/2)
# [7] = pH 7.4, 1 μM compound, without Cobicistat, read-out: MLM half-life (t1/2)
# [8] = pH 7.4, with Cobicistat 0.5 μM (CYP3A inhibitor), 1 μM compound, with 0.5 μM Cobicistat (CYP3A inhibitor), read-out: MLM (+Cobi) half-life (t1/2)
# [9] = human liver microsomes, without Cobicistat
# [10] = 1 μM compound, without Cobicistat
structure (smiles),measurement,setting,value
Cc1ccc(C)c2c1NC(=O)C2CC(=O)N[C@@H](Cc1ccccc1)C(=O)N(C)c1cccc(Cl)c1 (some centres unmarked) [drawing 180],half-life at 1 μM,[1]; [5],107 min
same,half-life at 1 μM,[1]; [6],6.7 min
same,half-life at 1 μM,[2]; [7],1.4 min
same,half-life at 1 μM,[2]; [8],34 min
"O=C(Cn1ncc2ccccc21)N[C@@H](Cc1ccccc1)c1ncccc1-c1ccccc1 [Example 50, (S)-2-(1H-indazol-1-yl)-N-(2-phenyl-1-(3-phenylpyridin-2-yl)ethyl)acetamide]",EC50,HIV-1,8.8 ± 0.4 µM
same,% viability at 50 μM,TZM-GFP cells,46 ± 13%
same,TSA ΔTm (° C.),[3],1.0 °C
CN(C(=O)[C@H](Cc1ccccc1)NC(=O)Cc1ccc2ccccc2c1)c1ccccc1 [drawing 181],half-life at 1 μM,[1]; [6],1.8 min
same,half-life at 1 μM,[2]; [7],0.5 min
"Cc1[nH]c2ccccc2c1CC(=O)N[C@@H](Cc1ccccc1)C(=O)N(C)c1ccccc1 [PF-74, reference compound]",HLM half-life (t1/2),[1]; [9],less than 1 min
same,MLM half-life (t1/2),[2]; [10],0.6 min
same,MLM half-life (t1/2),"[2]; 1 μM compound, without Cobicistat, listed as PF74",less than 1 min
CN(C(=O)[C@H](Cc1ccccc1)NC(=O)Cc1cccc2ccccc12)c1ccc(Cl)cc1 [drawing 184],half-life at 1 μM,[1]; [5],102 min
same,half-life at 1 μM,[1]; [6],1.1 min
same,half-life at 1 μM,[2]; [7],0.6 min
same,half-life at 1 μM,[2]; [8],7.4 min
COc1ccc(N(C)C(=O)[C@H](Cc2ccccc2)NC(=O)CN2C(=O)NC3(CCCCC3)C2=O)cc1 [drawing 186],half-life at 1 μM,[1]; [6],5.2 min
same,half-life at 1 μM,[2]; [7],0.7 min
Cc1cccc2c1NC(=O)C2CC(=O)N[C@@H](Cc1ccccc1)C(=O)N(C)c1ccccc1 (some centres unmarked) [drawing 177],half-life at 1 μM,[1]; [6],7 min
same,half-life at 1 μM,[2]; [7],1 min
CN(C(=O)[C@H](Cc1ccccc1)NC(=O)CN1C(=O)NC2(CCCCC2)C1=O)c1ccc(Cl)cc1 [drawing 189],half-life at 1 μM,[1]; [6],3.1 min
same,half-life at 1 μM,[2]; [7],0.9 min
Cc1ccc(C)c2c1NC(=O)C2CC(=O)N[C@@H](Cc1ccccc1)C(=O)N(C)c1ccccc1 (some centres unmarked) [drawing 179],half-life at 1 μM,[1]; [6],1.5 min
same,half-life at 1 μM,[2]; [7],0.6 min
CN(C(=O)[C@H](Cc1ccccc1)NC(=O)CNC(=O)c1ccccc1)c1cccc(F)c1 [drawing 193],HLM half-life (t1/2),[1]; [9],12 min
same,MLM half-life (t1/2),[2]; [10],3.6 min
CN(C(=O)[C@H](Cc1ccccc1)NC(=O)CNC(=O)c1ccccc1)c1ccccc1 [drawing 190],HLM half-life (t1/2),[1]; [9],15 min
same,MLM half-life (t1/2),[2]; [10],3.6 min
"O=C(Cn1c(=O)[nH]c2ccccc2c1=O)N[C@@H](Cc1ccccc1)C(=O)N1CCC[C@H]1C(=O)Nc1ccccc1 [Example 33, (S)-1-((2-(2,4-dioxo-1,4-dihydroquinazolin-3(2H)-yl)acetyl)-L-phenylalanyl)-N-phenylpyrrolidine-2-carboxamide]",EC50,HIV-1,1.6 ± 0.1 µM
same,CC50 at 72 h,[4],> 100 µM
same,TSA ΔTm (° C.),[3],2.5 °C
same,half-life in HLMs relative to PF74,"[1]; human liver microsomes, ratio of t1/2 to that of PF74",44 fold
same,half-life at 1 μM,[1]; [5],578 min
same,half-life in combination with Cobicistat compared with PF74,"[1]; with CYP3A inhibitor Cobicistat, microsome species not given",significantly longer half-life than that of PF74
"Cc1[nH]c2ccccc2c1CC(=O)N[C@@H](Cc1ccccc1)c1nccn1-c1ccccc1 [Example 52, (S)-2-(2-methyl-1H-indol-3-yl)-N-(2-phenyl-1-(1-phenyl-1H-imidazol-2-yl)ethyl)acetamide]",EC50,HIV-1,3.7 ± 0.8 µM
same,% viability at 50 μM,TZM-GFP cells,78 ± 6%
same,TSA ΔTm (° C.),[3],3.9 °C
Cc1cn(CC(=O)N[C@@H](Cc2ccccc2)C(=O)N(C)c2ccc(Cl)cc2)c(=O)[nH]c1=O [drawing 195],HLM half-life (t1/2),[1]; [9],12 min
same,half-life at 1 μM,[1]; [5],1390 min
same,MLM half-life (t1/2),[2]; [10],4.6 min
same,half-life at 1 μM,[2]; [8],385 min
